Organism: Rattus norvegicus
Test: Open TG-GATES - Regimen: Single
Assay type: toxicity, organism-based, Sprague-Dawley
Design: regimen Single, gender Male, age 6 weeks
Conditions: in vivo, po, 100 mg/kg, route gavage, dose level Middle; for APTT / Bas / Eos / Fbg / Hb / Ht / Lym / MCH / MCHC / MCV / Mono / Neu / PT / Plat / RBC / Ret / WBC: tissue Blood; for KIDNEY_L / KIDNEY_R / KIDNEY_TOTAL: tissue Kidney; for LIVER: tissue Liver; for A/G / ALP / ALT / AST / BUN / CRE / Ca / Cl / DBIL / GLC / IP / K / LDH / Na / PL / RALB / TBIL / TC / TG / TP / gamma-GTP: tissue Plasma

`C[C@]12CCC(=O)C=C1CC[C@@H]1[C@@H]2CC[C@@]2(C)[C@H]1CC[C@]2(C)O` [METHYLTESTOSTERONE] gave a TERMINAL_BW (3 h) of 202.8 g, an APTT (3 h) of 15.1 s and a Bas (3 h) of 0%. The Eos (3 h) was 1%, the Fbg (3 h) was 298.8 mg/dL and the Hb (3 h) was 12.9 g/dL. For the same compound, the Ht (3 h) was 37.9%, the Lym (3 h) was 72.2% and the MCH (3 h) was 22.2 pg. The MCHC (3 h) was 34.1%, the MCV (3 h) was 65 fL and the Mono (3 h) was 4.2%. It also gave a Neu (3 h) of 22.4%, a PT (3 h) of 13.1 s and a Plat (3 h) of 111.5 x10_4/uL. It also gave an RBC (3 h) of 582.8 x10_4/ul, a Ret (3 h) of 8.9% and a WBC (3 h) of 65.4 x10_2/uL. The KIDNEY_L (3 h) was 0.9 g, the KIDNEY_R (3 h) was 0.9 g and the KIDNEY_TOTAL (3 h) was 1.8 g. For the same compound, the LIVER (3 h) was 9.3 g, the A/G (3 h) was 0.9 and the ALP (3 h) was 1276.2 IU/L. For the same compound, the ALT (3 h) was 45.6 IU/L, the AST (3 h) was 74 IU/L and the BUN (3 h) was 11 mg/dL. The CRE (3 h) was 0.2 mg/dL, the Ca (3 h) was 11 mg/dL and the Cl (3 h) was 106.2 meq/L. It also gave a DBIL (3 h) of 0.01 mg/dL, a GLC (3 h) of 184.8 mg/dL and an IP (3 h) of 9.6 mg/dL. It also gave a K (3 h) of 4.3 meq/L, an LDH (3 h) of 73.8 IU/L and a Na (3 h) of 141.2 meq/L. The PL (3 h) was 136.2 mg/dL, the RALB (3 h) was 2.5 g/dL and the TBIL (3 h) was 0.042 mg/dL. For the same compound, the TC (3 h) was 74 mg/dL, the TG (3 h) was 63 mg/dL and the TP (3 h) was 5.4 g/dL. For the same compound, the gamma-GTP (3 h) was 1 IU/L, the TERMINAL_BW (6 h) was 202.3 g and the APTT (6 h) was 16.9 s. It also gave a Bas (6 h) of 0%, an Eos (6 h) of 1% and a Fbg (6 h) of 274.4 mg/dL. For the same compound, the Hb (6 h) was 13 g/dL, the Ht (6 h) was 37.9% and the Lym (6 h) was 74.4%. It also gave an MCH (6 h) of 21.5 pg, an MCHC (6 h) of 34.3% and an MCV (6 h) of 62.6 fL. For the same compound, the Mono (6 h) was 3.6%, the Neu (6 h) was 20.8% and the PT (6 h) was 13.4 s. The Plat (6 h) was 103.9 x10_4/uL, the RBC (6 h) was 606.6 x10_4/ul and the Ret (6 h) was 8.3%. The WBC (6 h) was 68.3 x10_2/uL, the KIDNEY_L (6 h) was 0.9 g and the KIDNEY_R (6 h) was 0.9 g. For the same compound, the KIDNEY_TOTAL (6 h) was 1.8 g, the LIVER (6 h) was 8.3 g and the A/G (6 h) was 0.9. For the same compound, the ALP (6 h) was 1515.6 IU/L, the ALT (6 h) was 38 IU/L and the AST (6 h) was 75.6 IU/L. For the same compound, the BUN (6 h) was 9.4 mg/dL, the CRE (6 h) was 0.2 mg/dL and the Ca (6 h) was 10.7 mg/dL. For the same compound, the Cl (6 h) was 107.4 meq/L, the DBIL (6 h) was 0.014 mg/dL and the GLC (6 h) was 181.6 mg/dL. For the same compound, the IP (6 h) was 9.8 mg/dL, the K (6 h) was 4.3 meq/L and the LDH (6 h) was 56 IU/L. The Na (6 h) was 141.2 meq/L, the PL (6 h) was 126.4 mg/dL and the RALB (6 h) was 2.5 g/dL. It also gave a TBIL (6 h) of 0.048 mg/dL, a TC (6 h) of 64 mg/dL and a TG (6 h) of 49.4 mg/dL. The TP (6 h) was 5.3 g/dL, the gamma-GTP (6 h) was 1.2 IU/L and the TERMINAL_BW (9 h) was 203.2 g. For the same compound, the APTT (9 h) was 16.2 s, the Bas (9 h) was 0% and the Eos (9 h) was 1%. The Fbg (9 h) was 296 mg/dL, the Hb (9 h) was 13.2 g/dL and the Ht (9 h) was 38.4%. The Lym (9 h) was 76.8%, the MCH (9 h) was 21.5 pg and the MCHC (9 h) was 34.3%. It also gave an MCV (9 h) of 62.9 fL, a Mono (9 h) of 2.8% and a Neu (9 h) of 18.8%. The PT (9 h) was 13.5 s, the Plat (9 h) was 112.3 x10_4/uL and the RBC (9 h) was 611.6 x10_4/ul. The Ret (9 h) was 8.1%, the WBC (9 h) was 69 x10_2/uL and the KIDNEY_L (9 h) was 0.9 g. It also gave a KIDNEY_R (9 h) of 0.8 g, a KIDNEY_TOTAL (9 h) of 1.7 g and an LIVER (9 h) of 8.1 g. For the same compound, the A/G (9 h) was 0.9, the ALP (9 h) was 1516.6 IU/L and the ALT (9 h) was 37.8 IU/L. The AST (9 h) was 70.2 IU/L, the BUN (9 h) was 8.2 mg/dL and the CRE (9 h) was 0.2 mg/dL. For the same compound, the Ca (9 h) was 10.5 mg/dL, the Cl (9 h) was 107.6 meq/L and the DBIL (9 h) was 0.016 mg/dL. For the same compound, the GLC (9 h) was 177.6 mg/dL, the IP (9 h) was 10.4 mg/dL and the K (9 h) was 4.3 meq/L. For the same compound, the LDH (9 h) was 69.4 IU/L, the Na (9 h) was 141.8 meq/L and the PL (9 h) was 119.2 mg/dL. The RALB (9 h) was 2.5 g/dL, the TBIL (9 h) was 0.046 mg/dL and the TC (9 h) was 53.6 mg/dL. The TG (9 h) was 89.8 mg/dL, the TP (9 h) was 5.3 g/dL and the gamma-GTP (9 h) was 1.2 IU/L. For the same compound, the TERMINAL_BW (24 h) was 205.5 g, the APTT (24 h) was 16.9 s and the Bas (24 h) was 0%. For the same compound, the Eos (24 h) was 1%, the Fbg (24 h) was 278.2 mg/dL and the Hb (24 h) was 13.1 g/dL. For the same compound, the Ht (24 h) was 38.5%, the Lym (24 h) was 77.6% and the MCH (24 h) was 21.5 pg. It also gave an MCHC (24 h) of 34.1%, an MCV (24 h) of 62.9 fL and a Mono (24 h) of 3%. It also gave a Neu (24 h) of 18.2%, a PT (24 h) of 13.3 s and a Plat (24 h) of 117.9 x10_4/uL. The RBC (24 h) was 613 x10_4/ul, the Ret (24 h) was 7.7% and the WBC (24 h) was 94.4 x10_2/uL. It also gave a KIDNEY_L (24 h) of 0.9 g, a KIDNEY_R (24 h) of 0.9 g and a KIDNEY_TOTAL (24 h) of 1.8 g. It also gave an LIVER (24 h) of 9.5 g, an A/G (24 h) of 0.9 and an ALP (24 h) of 1929.2 IU/L. It also gave an ALT (24 h) of 51.2 IU/L, an AST (24 h) of 76.2 IU/L and a BUN (24 h) of 14.8 mg/dL. For the same compound, the CRE (24 h) was 0.2 mg/dL, the Ca (24 h) was 11.1 mg/dL and the Cl (24 h) was 105.6 meq/L. The DBIL (24 h) was 0.022 mg/dL, the GLC (24 h) was 189.2 mg/dL and the IP (24 h) was 8.5 mg/dL. For the same compound, the K (24 h) was 4.3 meq/L, the LDH (24 h) was 97.8 IU/L and the Na (24 h) was 140.6 meq/L. For the same compound, the PL (24 h) was 142 mg/dL, the RALB (24 h) was 2.6 g/dL and the TBIL (24 h) was 0.032 mg/dL. It also gave a TC (24 h) of 65.4 mg/dL, a TG (24 h) of 141 mg/dL and a TP (24 h) of 5.6 g/dL. It also gave a gamma-GTP (24 h) of 1.4 IU/L.

Source: ChEMBL document CHEMBL3885861, “Open TG-GATES”
